Experimental data taken from paper PMC10816263, “Thermophilic PHP Protein Tyrosine Phosphatases (Cap8C and Wzb) from Mesophilic Bacteria” (International Journal of Molecular Sciences, 2024).

What was measured:
Cap8C = Cap8C (Staphylococcus aureus, UniProt P72369); experiment: p-nitrophenol release, absorbance […] nm; assay type: biochemical; conditions: 5 mM pNPP, 0.25 µM enzyme, 1.0 mM Co2+ (also Ni2+ or Mn2+), 92 mM Tris-HCl pH 7.5, 75 °C, 15 min
Wzb = molecular target: T1, Wzb (Lacticaseibacillus rhamnosus, UniProt Q58Z13); experiment: p-nitrophenol release, absorbance […] nm; assay type: biochemical; conditions: 5 mM pNPP, 0.25 µM enzyme, 1.0 mM Co2+ (also Ni2+ or Mn2+), 92 mM Tris-HCl pH 7.5, 75 °C, 15 min
T1 sequence (Q58Z13 1-254): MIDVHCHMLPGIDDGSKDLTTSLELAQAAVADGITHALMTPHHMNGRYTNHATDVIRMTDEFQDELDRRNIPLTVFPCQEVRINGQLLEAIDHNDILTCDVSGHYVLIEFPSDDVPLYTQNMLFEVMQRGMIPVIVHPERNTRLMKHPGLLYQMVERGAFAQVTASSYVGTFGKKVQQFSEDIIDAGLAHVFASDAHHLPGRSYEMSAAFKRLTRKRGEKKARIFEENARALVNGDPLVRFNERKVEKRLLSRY

Cap8C, sequence (P72369 entry or part of it): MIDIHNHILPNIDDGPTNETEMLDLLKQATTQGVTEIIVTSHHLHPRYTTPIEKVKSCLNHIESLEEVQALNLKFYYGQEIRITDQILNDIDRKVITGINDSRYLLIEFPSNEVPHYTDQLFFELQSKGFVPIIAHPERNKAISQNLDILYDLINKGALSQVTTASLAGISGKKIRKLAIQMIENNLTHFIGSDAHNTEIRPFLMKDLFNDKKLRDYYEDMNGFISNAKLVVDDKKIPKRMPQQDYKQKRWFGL

Structure (SMILES): O=[N+]([O-])c1ccc(OP(=O)(O)O)cc1 [p-nitrophenylphosphate]
- p-nitrophenol release, absorbance 405 nm (Cap8C): Cap8C and Lactobacillus rhamnosus Wzb proteins were established to have phosphatase activity using pNPP
- p-nitrophenol release, absorbance 405 nm (Wzb): Lactobacillus rhamnosus Wzb proteins were established to have phosphatase activity using pNPP as substrate
